Experimental data reported in publication PMC3462190, “A Peptidic Unconjugated GRP78/BiP Ligand Modulates the Unfolded Protein Response and Induces Prostate Cancer Cell Death” (PLoS ONE, 2012).
Where no end group is shown, it is not given here.

Tested on: 22Rv.1 cells
Assay: Clonogenic assay
Type: cell-based
Conditions: neomycin selection, colonies quantified; mean ± SEM of at least three independent experiments
Source text: Figure 5 An N-terminal unfolded fragment of the Bag-1 peptide is sufficient to reduce tumor cell growth. A. Schematic diagram of the Bag-1 peptide and its deletion mutants. The ubiquitin-like domain is represented in blue and the BAG domain in red. The numbers refer to the amino acid positions of the different domains. The amino acid residues are numbered following the numbering for Bag-1L. B. Prediction of the secondary structure of the Bag-1 peptide, showing an N-terminal β-hairpin from the ubiquitin-like domain (blue) and a C-terminal α-helix from the BAG domain (red). C. Normalized circular dichroism spectra of the Bag-1 peptides. 30 µM of the Bag-1 peptide were measured in 20 mM KHPO4 buffer, pH 6.8 (black line). Its α-helical content was estimated to be approximately 25% by deconvolution of the spectra (red line). 12 µM of the N-term peptide (green line) and 11 µM of C-term (blue line) were measured under the same conditions. D. ^1H^15N-HSQC NMR spectrum of ^15N-labeled Bag-1 peptide (202–269) in 20 mm KHPO4 buffer, pH 6.8, at 23°C. […] The Hδ and Hε side chain signals of asparagine and glutamine are connected by thin lines. E. The N-terminal region of the Bag-1 peptide is important for GRP78 binding. 400 µg of 22Rv.1 cell lysate were incubated with glutathione-agarose beads carrying 15 µg GST-N-term peptide (lane 2), GST-C-term peptide (lane 3), GST-ΔUbi peptide (lane 4), GST-Bag-1(202–269) peptide (lane 5) and GST (lane 6). The beads were washed and the bound proteins were separated by 10% SDS-PAGE and subjected to Western blotting using antibodies directed against GRP78 or GST. […] F. Clonogenic assay of the Bag-1 peptides expressed in 22Rv.1 cells. Cells transfected with the indicated constructs were selected in medium containing neomycin and the colonies formed were quantified. Shown are the mean value ±SEM of at least three independent experiments using three different plasmid preparations (*p<0.05). […] Six-week old athymic nude mice were injected subcutaneously on both flanks with 5×10^6 cells of each stable clone. Tumor size was measured once per week using a caliper and expressed as tumor volume in mm^3. Shown are the tumor volumes of clones transfected with the N-terminal peptide (G), the C-terminal peptide (H) and the ΔUbi peptide (I). Each point represents the mean volume and standard deviation of at least 5 to 10 tumors.
Figure 6 Selectivity of action of the Bag-1 peptide. A Amino acid sequence of the 19mer peptide and its deletion mutants. B GST pull-down assay performed incubating 400 µg of 22Rv.1 cell lysate and 25 µg of GST-fused deletion mutants of the 19mer peptide. After the pull-down experiment, Western blots were carried out with anti-GRP78/BiP and GST antibodies. C. Fluorescence polarization (FP) assays with a 10 nM FITC-labeled 7-mer Bag-1 peptide and dilutions of the GST-fused substrate binding domain of GRP78 in 60 µl of Tris-GSH buffer (50 mM Tris, 10 mM reduced glutathione and 0.1% BSA, pH 8.0). Triplicate samples were measured after 5 h of incubation at room temperature with an Infinite F-200 reader (Tecan) with excitation at 490 nm and emission at 535 nm. Binding constants were determined from three independent experiments using non-linear regression in Sigma Plot 10.0. D. Competition assays with a complex of 10 nM of FITC-labeled Bag-1 7-mer peptide and 0.75 mg/ml GST-fused GRP78 substrate binding domain was measured against a dilution series from 100 µM to 0.1 nM of wild-type Bag-1 7-mer peptide (filled line) or triple mutant peptide (dotted line) in 40 µl of Tris-GSH buffer. FITC-peptide and the FITC-peptide-protein complex were used as controls. Fluorescence polarization was determined as described above and IC50 values were determined in Sigma Plot. […]

Molecule | 22Rv.1 growth in clonogenic assay
19-mer: Bag-1L 202–220 (TPLSALGIQDGCRVMLIGK; not fully specified) | inhibit 22Rv.1 cell growth
C-terminal peptide: 28 C-terminal fragment of the Bag-1 peptide (Bag-1L 241–269) (EKIADQLEELNKELTGIQQGFLPKDLQAE; not fully specified) | ineffective
N-terminal peptide: N-terminal 40 residues of the Bag-1 peptide (Bag-1L 202–241) (TPLSALGIQDGCRVMLIGKKNSPQEEVELKKLKHLEKSVE; not fully specified) | inhibited growth of the 22Rv.1 cells
ΔUbi peptide: Bag-1 peptide lacking the ubiquitin-like domain portion (Bag-1L 220–269) (KKNSPQEEVELKKLKHLEKSVEKIADQLEELNKELTGIQQGFLPKDLQAE; not fully specified) | ineffective
Bag-1 peptide: internal sequence of 68 amino acids of Bag-1 (Bag1-L 202–269), HA-tagged, expressed from pcDNA3 (also: HA tag, end not given here) TPLSALGIQDGCRVMLIGKKNSPQEEVELKKLKHLEKSVEKIADQLEELNKELTGIQQGFLPKDLQAE | inhibited growth of the 22Rv.1 cells
